Assay results from patent US9745334B2, “Cytotoxic-drug delivering molecules targeting HIV (CDM-Hs), cytotoxic activity against the human immunodeficiency virus and methods of use” (YALE UNIVERSITY, priority 2012, dated 2017).

What was measured:
CHO-env (gp120+) cells = experiment: Cell cytotoxicity assay (CellTiter Glo), CHO-env; type: cell-based; conditions: 14 h; at 310 nM and 1.85 μM
Method: (§1) Wild-type HIV-1 env expressing CHO-env cells and CHO-pSv (env negative isogenic control) were a gift from Dr. Edward Berger (NIH), however, they were developed by Nicholas and coworkers.^55 CHO-pSv cells were grown in DMEM base media described below while CHO-env cells were grown in selection medium, which consists of base medium containing 0.25 μM methotrexate (MTX, Aldrich). *Note: Decrease in envelope expression in CHO-env cells was observed upon several passages and it is recommended to maintain low passage stocks of cells in liquid nitrogen.
(§2) Cell Cytotoxicity Assay (CellTiter Glo)
(§3) ***Note: all incubations and dilutions in CHO-culture media (+MTX for CHO-env)
(§4) ***All incubations performed in 96-well plates (clear bottom, black sides; Costar#3603) in triplicate at 37° C., 5% CO2 in moist environment.
(§5) Confluent (˜80%) T-75 flasks of CHO-env and/or CHO-pSv were washed once with DPBS (3 mL), detached, counted and then centrifuged. […]
(§6) Serial dilutions (1/6) of molecules made in empty 96-well plates using multichannel pipette, and then transferred to plates containing seeded cells (50 μL). […] Luminescence monitored on Biotek Synergy 2 microplate reader.
(§7) % cytotoxicity above background calculated by the following formulas: % CDC=[100−((sample−max kill)/(no molecule−max kill))*100] […]

CHO-pSV (gp120−) cells = experiment: Cell cytotoxicity assay (CellTiter Glo), CHO-pSV; type: cell-based; conditions: 14 h incubation; concentrations as high as 67 μM
Method: as §1, §2, §3, §4, §5, §6, §7

In the case of `COc1cccc2c1C(=O)c1c(O)c3c(c(O)c1C2=O)C[C@@](O)(C(=O)CO)C[C@@H]3O[C@H]1C[C@H](N)[C@H](O)[C@H](C)O1` [doxorubicin], the “toxicity at low concentrations” value (CHO-env (gp120+) cells) is reported as “no toxicity was observed” and the non-specific cytotoxicity (CHO-pSV (gp120−) cells) is reported as “non-specifically toxic”.
